# Measurements: patent US20210317140A1, “Heterocyclic Compounds and Methods of Use” (MEDIVATION TECHNOLOGIES, INC, priority 2013, published 2021)
# pIC50: −log10 of the molar value.
# Experiments:
# Format in all cases: biochemical
# [1] = target: T1, BTK (Homo sapiens, UniProt Q06187); assay: BTK kinase assay (HotSpot, 33P ATP); details: for pIC50: 10 dose IC50, 10 μM ATP; for BTK @ 0.1 μM (% Inh): 0.1 μM compound; for BTK @ 1 μM (% Inh): 1 μM compound
# T1 construct: purchased Reaction Biology Corporation
# T1 sequence (Q06187 whole entry): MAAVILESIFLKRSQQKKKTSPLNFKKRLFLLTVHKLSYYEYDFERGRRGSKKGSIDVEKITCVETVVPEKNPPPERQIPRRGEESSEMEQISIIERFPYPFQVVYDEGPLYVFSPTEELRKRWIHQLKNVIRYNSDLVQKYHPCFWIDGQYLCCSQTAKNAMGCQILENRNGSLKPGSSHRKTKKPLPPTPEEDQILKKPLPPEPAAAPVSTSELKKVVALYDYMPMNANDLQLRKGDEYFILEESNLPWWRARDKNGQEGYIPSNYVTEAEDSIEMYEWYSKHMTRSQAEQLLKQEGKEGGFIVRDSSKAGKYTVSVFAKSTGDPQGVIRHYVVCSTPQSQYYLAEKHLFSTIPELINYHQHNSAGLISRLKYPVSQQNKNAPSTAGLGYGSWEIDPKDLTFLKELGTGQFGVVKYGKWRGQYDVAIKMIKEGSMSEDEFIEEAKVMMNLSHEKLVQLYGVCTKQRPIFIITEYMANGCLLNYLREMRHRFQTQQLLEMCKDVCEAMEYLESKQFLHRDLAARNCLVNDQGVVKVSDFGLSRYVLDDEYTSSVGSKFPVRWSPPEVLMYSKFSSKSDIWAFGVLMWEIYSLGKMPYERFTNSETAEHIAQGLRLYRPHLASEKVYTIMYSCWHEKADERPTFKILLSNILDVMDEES
# In short: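 In 20 mM Hepes (pH 7.5) with 10 mM MgCl2, 1 mM EGTA, 0.1 mM Na3VO4, 2 mM DTT, 0.02% Brij35, 0.02 mg/mL BSA and 1% DMSO, kinase and substrate were exposed to ten compound doses for 15–20 min.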
# [2] = target: T2, PI3Kβ (Homo sapiens, UniProt P42338); assay: PI3Kβ isoform profiling (PI3Kδ protocol); details: for PI3Kβ @ 0.3 μM (% Inh): 0.3 μM compound; for pIC50: 10 dose IC50
# T2 construct: purchased Reaction Biology Corporation
# T2 sequence (P42338 whole entry, canonical isoform): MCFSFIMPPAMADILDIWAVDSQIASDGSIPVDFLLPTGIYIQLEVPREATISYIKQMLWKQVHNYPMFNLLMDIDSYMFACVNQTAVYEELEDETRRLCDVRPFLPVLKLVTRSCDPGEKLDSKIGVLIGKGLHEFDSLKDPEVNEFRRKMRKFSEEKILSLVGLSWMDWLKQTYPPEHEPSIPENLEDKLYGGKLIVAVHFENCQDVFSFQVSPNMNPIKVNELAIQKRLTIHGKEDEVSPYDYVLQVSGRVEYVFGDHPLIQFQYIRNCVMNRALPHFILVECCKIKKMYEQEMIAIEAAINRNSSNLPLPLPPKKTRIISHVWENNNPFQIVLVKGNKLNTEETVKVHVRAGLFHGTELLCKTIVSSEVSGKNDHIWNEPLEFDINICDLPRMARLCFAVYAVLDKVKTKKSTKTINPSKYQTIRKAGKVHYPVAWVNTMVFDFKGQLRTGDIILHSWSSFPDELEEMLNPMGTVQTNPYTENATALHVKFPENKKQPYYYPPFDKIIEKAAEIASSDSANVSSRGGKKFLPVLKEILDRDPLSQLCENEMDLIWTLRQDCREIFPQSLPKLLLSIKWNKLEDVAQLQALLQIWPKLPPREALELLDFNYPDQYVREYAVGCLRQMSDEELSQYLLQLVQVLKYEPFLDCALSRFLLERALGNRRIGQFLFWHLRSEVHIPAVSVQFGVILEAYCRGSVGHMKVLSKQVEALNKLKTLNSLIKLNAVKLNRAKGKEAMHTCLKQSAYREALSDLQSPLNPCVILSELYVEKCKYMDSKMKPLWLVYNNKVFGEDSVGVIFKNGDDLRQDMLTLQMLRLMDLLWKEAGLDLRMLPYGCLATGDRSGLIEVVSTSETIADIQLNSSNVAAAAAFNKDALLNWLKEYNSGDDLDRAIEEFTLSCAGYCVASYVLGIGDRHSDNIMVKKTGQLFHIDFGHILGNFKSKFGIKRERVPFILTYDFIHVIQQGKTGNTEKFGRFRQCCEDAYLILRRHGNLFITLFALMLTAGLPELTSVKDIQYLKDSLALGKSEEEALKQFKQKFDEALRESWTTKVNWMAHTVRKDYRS
# T2 sequence (P27986 whole entry partner, canonical isoform): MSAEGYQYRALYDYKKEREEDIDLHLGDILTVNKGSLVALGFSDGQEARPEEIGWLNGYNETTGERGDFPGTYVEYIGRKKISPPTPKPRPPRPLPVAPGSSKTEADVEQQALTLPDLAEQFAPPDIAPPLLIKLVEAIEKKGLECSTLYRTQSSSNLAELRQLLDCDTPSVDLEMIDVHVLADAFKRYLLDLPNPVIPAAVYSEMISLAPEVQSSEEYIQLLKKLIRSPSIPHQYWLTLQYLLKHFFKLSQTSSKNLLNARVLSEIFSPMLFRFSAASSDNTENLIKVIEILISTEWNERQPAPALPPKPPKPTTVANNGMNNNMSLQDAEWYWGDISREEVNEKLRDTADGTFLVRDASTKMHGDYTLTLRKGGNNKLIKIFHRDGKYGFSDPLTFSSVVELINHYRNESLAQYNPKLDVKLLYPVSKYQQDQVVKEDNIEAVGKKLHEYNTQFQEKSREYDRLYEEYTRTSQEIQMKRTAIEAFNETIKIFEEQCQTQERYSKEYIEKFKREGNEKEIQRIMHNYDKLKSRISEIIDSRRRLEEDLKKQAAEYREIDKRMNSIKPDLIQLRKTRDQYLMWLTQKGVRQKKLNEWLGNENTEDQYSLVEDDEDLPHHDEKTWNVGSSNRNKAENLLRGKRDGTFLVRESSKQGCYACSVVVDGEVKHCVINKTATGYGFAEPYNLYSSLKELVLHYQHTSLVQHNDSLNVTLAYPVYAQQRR
# Excerpt: PI3Kδ assay: The PIP3 product is detected by displacement of biotin-PIP3 from an energy transfer complex consisting of Europium labeled anti-GST monoclonal antibody, a GST-tagged pleckstrin homology (PH) domain, biotinylated PIP3 and Streptavidin-Allophycocyanin (APC). Excitation of Europium in the complex results in an energy transfer to the APC and a fluorescent emission at 665 nm. The PIP3 product formed by PI 3-Kinase(h) activity displaces biotin-PIP3 from the complex resulting in a loss of energy transfer and thus a decrease in signal. This is a 3-step reaction: First, the kinase reaction with PIP2 substrate is carried out in the presence of ATP (10 μM), and the reaction is quenched with stop Solution, and then finally detect by adding Detection Mixture followed by incubation (10 min). Reaction procedure: 1) Prepare substrate in freshly prepared Reaction Buffer. 2) Deliver kinase into the substrate solution and gently mix. 3) Deliver compounds in 100% DMSO (1 μM) into the kinase reaction mixture by Acoustic technology (Echo550; nanoliter range), incubate for 10 min at RT. 4) Deliver ATP into the reaction mixture to initiate the reaction. 5) Incubate for 30 min at 30° C. 6) Quench the reaction with Stop Solution. 7) Add Detection Mixture, and incubate for overnight. 8) Measure HTRF: Ex=320 nm, ratio of Em=615 nm and Em=665 nm. The emission ratio is converted into μM PIP3 production based on PIP3 standard curves. The nonlinear regression to obtain the standard curve and IC50 values are performed using Graphpad Prism software. Assay Buffer: HEPES 50 mM (pH7.0), NaN3 0.02%, BSA 0.01%, Orthovanadate 0.1 mM, 1% DMSO. Detection buffer: HEPES 10 mM (pH7.0), BSA 0.02%, KF 0.16 M, EDTA 4 mM. Substrate: 10 μM PIP2 substrate (PI(4,5)P2).
# Compounds of the invention were profiled in a 10 dose IC50 panel against PI3Kα, PI3Kβ, and PI3Kγ kinases, provided by Reaction Biology Corporation, applied to the PI3Kδ protocol provided in Example B1.
# [3] = target: T3, ITK (Homo sapiens, UniProt Q08881); assay: ITK kinase profiling (BTK protocol); details: for ITK @ 0.3 μM (% Inh): 0.3 μM compound; for pIC50: 10 dose IC50
# T3 construct: purchased Reaction Biology Corporation
# T3 sequence (Q08881 1-620): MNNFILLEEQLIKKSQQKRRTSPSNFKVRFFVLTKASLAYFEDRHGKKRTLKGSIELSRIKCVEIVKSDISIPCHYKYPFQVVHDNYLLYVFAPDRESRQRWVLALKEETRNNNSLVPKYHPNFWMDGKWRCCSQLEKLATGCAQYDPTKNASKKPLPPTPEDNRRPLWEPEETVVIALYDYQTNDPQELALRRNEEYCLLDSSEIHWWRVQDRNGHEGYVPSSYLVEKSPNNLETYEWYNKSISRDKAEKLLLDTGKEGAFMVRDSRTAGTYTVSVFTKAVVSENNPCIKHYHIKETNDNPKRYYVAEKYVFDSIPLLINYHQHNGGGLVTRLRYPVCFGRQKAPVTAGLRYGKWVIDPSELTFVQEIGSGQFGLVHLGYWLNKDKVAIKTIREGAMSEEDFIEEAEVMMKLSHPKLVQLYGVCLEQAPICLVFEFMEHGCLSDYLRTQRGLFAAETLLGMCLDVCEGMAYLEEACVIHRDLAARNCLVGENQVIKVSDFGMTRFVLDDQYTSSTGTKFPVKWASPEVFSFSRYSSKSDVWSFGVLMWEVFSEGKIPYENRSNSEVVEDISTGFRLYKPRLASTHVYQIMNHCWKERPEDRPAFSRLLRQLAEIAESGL
# Description: (§1) BTK assay: In vitro profiling protein kinases was performed using the “HotSpot” assay platform. Briefly, specific kinase/substrate pairs along with required cofactors were prepared in reaction buffer. Compounds were prepared as 10 mM stock solutions in DMSO. Compounds were delivered into the reaction, followed 15-20 minutes later by addition of a mixture of ATP (Sigma, St. Louis Mo.) and ^33P ATP (Perkin Elmer, Waltham Mass.) to a final concentration of 10 μM. […] IC50 values and curve fits were obtained using Prism (GraphPad Software). Buffer Conditions: 20 mM Hepes (pH 7.5), 10 mM MgCl2, 1 mM EGTA, 0.02% Brij35, 0.02 mg/mL BSA, 0.1 mM Na3VO4, 2 mM DTT, 1% DMSO.
# [4] = target: T4, TEC (Homo sapiens, UniProt P42680); assay: TEC kinase profiling (BTK protocol); details: for TEC @ 0.3 μM (% Inh): 0.3 μM compound; for pIC50: 10 dose IC50
# T4 construct: purchased Reaction Biology Corporation
# T4 sequence (P42680 1-631): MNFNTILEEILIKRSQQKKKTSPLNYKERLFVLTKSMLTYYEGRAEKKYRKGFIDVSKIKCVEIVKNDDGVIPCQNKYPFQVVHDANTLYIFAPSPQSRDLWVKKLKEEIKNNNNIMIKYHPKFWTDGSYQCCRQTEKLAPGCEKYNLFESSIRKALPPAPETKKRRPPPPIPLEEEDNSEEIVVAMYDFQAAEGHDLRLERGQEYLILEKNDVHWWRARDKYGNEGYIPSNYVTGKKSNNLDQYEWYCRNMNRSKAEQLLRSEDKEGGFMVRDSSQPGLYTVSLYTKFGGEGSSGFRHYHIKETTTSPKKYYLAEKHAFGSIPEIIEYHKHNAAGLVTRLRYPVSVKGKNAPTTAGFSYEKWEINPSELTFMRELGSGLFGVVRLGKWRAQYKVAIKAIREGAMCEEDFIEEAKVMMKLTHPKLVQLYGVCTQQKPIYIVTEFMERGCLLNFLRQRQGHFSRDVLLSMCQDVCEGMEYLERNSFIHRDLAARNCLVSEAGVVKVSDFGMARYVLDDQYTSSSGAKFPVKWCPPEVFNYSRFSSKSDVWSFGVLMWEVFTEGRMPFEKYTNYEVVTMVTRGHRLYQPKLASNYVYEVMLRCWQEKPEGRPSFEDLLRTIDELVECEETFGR
# Description: as §1
Compound,pIC50 [1],PI3Kβ @ 0.3 μM (% Inh) [2],ITK @ 0.3 μM (% Inh) [3],TEC @ 0.3 μM (% Inh) [4],BTK @ 0.1 μM (% Inh) ([1]; 10 μM ATP),PI3Kβ @ 0.3 μM (% Inh) ([2]; 0.3 µM),ITK @ 0.3 μM (% Inh) ([3]; 0.3 µM),TEC @ 0.3 μM (% Inh) ([4]; 0.3 µM),"BTK @ 0.01 μM (% Inh) ([1]; 0.01 μM compound, 10 μM ATP)",pIC50 [2],pIC50 [3],pIC50 [4],BTK @ 1 μM (% Inh) ([1]; 10 μM ATP)
"Nc1ncnc2c1c(-c1ccc(F)c(O)c1)nn2C1CCc2ccccc2C1 (racemic) [Compound No. 26, 5-(4-amino-1-(1,2,3,4-tetrahydronaphthalen-2-yl)-1H-pyrazolo[3,4-d]pyrimidin-3-yl)-2-fluorophenol]",7.97,37.87 % Inh,2.15 % Inh,66.1 % Inh,,,,,,,,,
"Nc1ncnc2c1c(-c1ccc3cc[nH]c3c1)nn2C1CCc2ccccc2C1 (racemic) [compound 18, 3-(1H-indol-6-yl)-1-(1,2,3,4-tetrahydronaphthalen-2-yl)-1H-pyrazolo[3,4-d]pyrimidin-4-amine]",6.59,34.21 % Inh,−3.29 % Inh,10.01 % Inh,38.26 % Inh,,,,,,,,
"Nc1ncnc2c1c(-c1cc(O)cc(F)c1)nn2C1CCc2ccccc2C1 (single isomer, unassigned) [6a, 3-(4-amino-1-(1,2,3,4-tetrahydronaphthalen-2-yl)-1H-pyrazolo[3,4-d]pyrimidin-3-yl)-5-fluorophenol]",7.09,,,,63.12 % Inh,55.06 % Inh,4.58 % Inh,41.28 % Inh,,,,,
"Nc1ncnc2c1c(-c1cc(O)cc(F)c1)nn2C1CCc2ccccc2C1 (single isomer, unassigned) [6b, 3-(4-amino-1-(1,2,3,4-tetrahydronaphthalen-2-yl)-1H-pyrazolo[3,4-d]pyrimidin-3-yl)-5-fluorophenol]",6.95,,,,45.78 % Inh,69.23 % Inh,0.04 % Inh,27.3 % Inh,,,,,
"C=CC(=O)N1CC(n2nc(-c3cc(O)cc(F)c3)c3c(N)ncnc32)Cc2cc(C)ccc21 (single isomer, unassigned) [31b, 1-(3-(4-amino-3-(3-fluoro-5-hydroxyphenyl)-1H-pyrazolo[3,4-d]pyrimidin-1-yl)-6-methyl-3,4-dihydroquinolin-1(2H)-yl)prop-2-en-1-one]",7.92,32.34 % Inh,6.31 % Inh,56.91 % Inh,93.12 % Inh,,,,64.36 % Inh,,,,
"COc1cc(-c2nn(C3Cc4ccccc4C3)c3ncnc(N)c23)ccc1C [Compound No. 49, 1-(2,3-dihydro-1H-inden-2-yl)-3-(3-methoxy-4-methylphenyl)-1H-pyrazolo[3,4-d]pyrimidin-4-amine]",7.24,19.09 % Inh,6.31 % Inh,44.68 % Inh,75.02 % Inh,,,,,,,,96.31 % Inh
"Nc1ncnc2c1c(-c1ccc(Cl)c(O)c1)nn2C1Cc2ccccc2C1 [Compound No. 56, 5-[4-amino-1-(2,3-dihydro-1H-inden-2-yl)-1H-pyrazolo[3,4-d]pyrimidin-3-yl]-2-chlorophenol]",7.87,27.87 % Inh,8.82 % Inh,61.02 % Inh,90.244 % Inh,,,,,,,,98.64 % Inh
"Nc1ncnc2c1c(-c1ccc(Br)c(O)c1)nn2C1Cc2ccccc2C1 [compound 2, 5-(4-amino-1-(2,3-dihydro-1H-inden-2-yl)-1H-pyrazolo[3,4-d]pyrimidin-3-yl)-2-bromophenol]",,,,,78.45 % Inh,,,,,,< 4.00,7.00,

# Second part, the compound after the results:
pIC50 [1],PI3Kβ @ 0.3 μM (% Inh) [2],ITK @ 0.3 μM (% Inh) [3],TEC @ 0.3 μM (% Inh) [4],BTK @ 0.1 μM (% Inh) ([1]; 10 μM ATP),PI3Kβ @ 0.3 μM (% Inh) ([2]; 0.3 µM),ITK @ 0.3 μM (% Inh) ([3]; 0.3 µM),TEC @ 0.3 μM (% Inh) ([4]; 0.3 µM),"BTK @ 0.01 μM (% Inh) ([1]; 0.01 μM compound, 10 μM ATP)",pIC50 [2],pIC50 [3],pIC50 [4],BTK @ 1 μM (% Inh) ([1]; 10 μM ATP),Compound
7.98,,,,84.11 % Inh,,,,,5.95,< 4.00,7.31,,"Nc1ncnc2c1c(-c1ccc(F)c(O)c1)nn2C1CCc2ccccc2C1 (single isomer, unassigned) [Compound No. 26a, 5-(4-amino-1-(1,2,3,4-tetrahydronaphthalen-2-yl)-1H-pyrazolo[3,4-d]pyrimidin-3-yl)-2-fluorophenol]"
7.68,,,,82.1 % Inh,,,,,6.10,4.29,7.09,,"Nc1ncnc2c1c(-c1ccc(F)c(O)c1)nn2C1CCc2ccccc2C1 (single isomer, unassigned) [Compound No. 26b, 5-(4-amino-1-(1,2,3,4-tetrahydronaphthalen-2-yl)-1H-pyrazolo[3,4-d]pyrimidin-3-yl)-2-fluorophenol]"
8.15,,,,90.90 % Inh,,,,,6.38,< 4.00,7.69,,"Nc1ncnc2c1c(-c1ccc(F)c(O)c1)nn2C1Cc2ccccc2C1 [Compound No. 29, 5-(4-amino-1-indan-2-yl-pyrazolo[3,4-d]pyrimidin-3-yl)-2-fluoro-phenol]"
